Data: patent publication US20110262464A1, “Compositions, Kits, and Methods for the Diagnosis, Prognosis, and Monitoring of Cancer Using GOLPH3” (DANAFARBER CANCER INSTITUTE, INC., priority 2008, published 2011)

Legend:
[1] = test system: 1205LU melanoma xenograft tumors; experiment: In vivo rapamycin treatment of xenograft tumors; parameters: species or system mouse; conditions: 1205LU-GOLPH3 tumors; rapamycin 6.0 mg/kg i.p. every other day; day 8, post 4 doses
Method: (§1) For in vivo rapamycin studies, melanoma 1205LU and WM239A cells verified to stably-express empty vector or GOLPH3 were subcutaneously implanted into female nude animals (Taconic) at 5.0×10^5 cells/site on both flanks. Tumors were allowed to reach approximately 100 mm^3, after which time animals were randomized into separate cohorts for treatment with vehicle [5% (vol/vol) PEG400.5% (vol/vol) Tween-80) or rapamycin (6 mg/kg; LC Laboratories; 50 mg/ml stock prepared in 100% ETOH and diluted fresh in vehicle solvent for treatment) by intraperitoneal injection every other day. Tumor volumes and body weights were measured upon drug administration. Tumor volume was determined by measuring in two directions with vernier calipers and formulated as tumor volume=[…]. Growth curves were plotted as mean change in tumor volume for each group, where mean change indicates change in tumor volume at a given time point minus tumor volume at time of initial dose administration. Endpoint scatter plots were plotted as proportion of final dose endpoint tumor volume over respective tumor baseline starting volume. Percent tumor growth inhibition was determined as (1-(T/N))×100, where T is the mean change in tumor volume of the treated group and N is the mean change in tumor volume of the control group at the assay endpoint. Two-tailed t-test calculations were performed using Prism 4 (Graphpad).

[2] = test system: WM239A melanoma xenograft tumors; experiment: In vivo rapamycin treatment of xenograft tumors; parameters: species or system mouse; conditions: WM239A-GOLPH3 tumors; rapamycin 6.0 mg/kg i.p. every other day; day 8, post 4 doses
Method: as §1

## CO[C@H]1C[C@@H]2CC[C@@H](C)[C@@](O)(O2)C(=O)C(=O)N2CCCC[C@H]2C(=O)O[C@H]([C@H](C)C[C@@H]2CC[C@@H](O)[C@H](OC)C2)CC(=O)[C@H](C)/C=C(\C)[C@@H](O)[C@@H](OC)C(=O)[C@H](C)C[C@H](C)/C=C/C=C/C=C/1C [rapamycin]
[1]
  percent tumor growth inhibition (% TGI): 81.9%
[2]
  percent tumor growth inhibition (% TGI): 80.9%
